Assay [1] addresses T1, E2DH Type I (HSD Type I) in T47D breast cancer cells (Homo sapiens, UniProt P14061).
T1 construct: T47D breast cancer cells in which E2HSD Type I activity is abundant; endogenous in cells; host or cells: T47D breast cancer cells
T1 sequence (P14061 2-328 limits assumed): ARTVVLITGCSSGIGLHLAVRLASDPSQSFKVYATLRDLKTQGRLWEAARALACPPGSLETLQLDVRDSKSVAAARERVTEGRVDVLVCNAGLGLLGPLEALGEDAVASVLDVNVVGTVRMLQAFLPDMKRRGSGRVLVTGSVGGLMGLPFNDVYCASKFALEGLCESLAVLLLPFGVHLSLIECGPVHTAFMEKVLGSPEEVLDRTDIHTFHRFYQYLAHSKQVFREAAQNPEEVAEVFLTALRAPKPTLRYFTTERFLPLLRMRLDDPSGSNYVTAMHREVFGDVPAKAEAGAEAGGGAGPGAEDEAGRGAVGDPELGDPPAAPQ
Description: Conversion of oestrone to oestradiol in intact T47D cell monolayers (Protocol 7). It counts as cell-based. As to conditions: measured at 10 μM; for inhibition at 10 µM: T47D, read-out: % Inhibition E1 → E2 ± SD (HSD Type I). As for the experimental part:
(§1) The ability of compounds to inhibit steroid dehydrogenase activity can be assessed using either T47D breast cancer cells in which E2HSD Type I activity is abundant or MDA-MB-231 cells for Type II inhibitor studies. In both cell lines formation of products is linear with respect to time and cell numbers. Details on a suitable Assay Protocol are presented in the Examples section.
(§2) Conversion of oestrone to oestradiol (E1→E2, E2DH Type I) and oestradiol to oestrone (E2→E1, E2DH Type II) was measured in intact cell monolayers of T47D and MDA-MB231 breast cancer cells respectively. Cells were cultured in flasks until they were 80–90% confluent. ^3 H-E1 or ^3H-E2 (6 pmol, ˜90 Ci/mmol) were added to each flask in the absence (control) or presence of various test compounds (10 μM) in 2.5 ml of medium. Substrate was also added to flasks without cells and incubated in parallel (blanks).
(§3) After incubation with T47D cells for 30 min or MDA cells for 3 h at 37° C., 2 ml of the medium was added to test tubes containing ^14C-E2 or ^14C-E1 (˜5000 cpm) and 50 μg E2 or E1 respectively. Steroids were extracted from the aqueous medium with diethyl ether (4 ml). The ether phase was decanted into separate tubes after freezing the aqueous phase in solid carbon dioxide-methanol mixture. The ether was evaporated to dryness under a stream of air at 40° C. The residue was dissolved in a small volume of diethyl ether and applied to TLC plates containing a fluorescent indicator. E1 and E2 were separated by TLC using DCM-Ethyl acetate (4:1 v/v). The position of the product from each incubation flask was marked on the TLC plate after visualisation under UV light. The marked regions were cut out and placed in scintillation vials containing methanol (0.5 ml) to elute the product. The amount of ^3 H-product formed and ^14C-E1 or ^14C-E2 recovered were calculated after scintillation spectrometry. The amount of product formed was corrected for procedural losses and for the number of cells in each flask.

Assay [2] has as its target T2, E2DH Type II (HSD Type II) in MDA-MB231 breast cancer cells (Homo sapiens, UniProt P37059).
T2 construct: endogenous in cells; host or cells: MDA-MB-231 breast cancer cells
T2 sequence (P37059 1-387): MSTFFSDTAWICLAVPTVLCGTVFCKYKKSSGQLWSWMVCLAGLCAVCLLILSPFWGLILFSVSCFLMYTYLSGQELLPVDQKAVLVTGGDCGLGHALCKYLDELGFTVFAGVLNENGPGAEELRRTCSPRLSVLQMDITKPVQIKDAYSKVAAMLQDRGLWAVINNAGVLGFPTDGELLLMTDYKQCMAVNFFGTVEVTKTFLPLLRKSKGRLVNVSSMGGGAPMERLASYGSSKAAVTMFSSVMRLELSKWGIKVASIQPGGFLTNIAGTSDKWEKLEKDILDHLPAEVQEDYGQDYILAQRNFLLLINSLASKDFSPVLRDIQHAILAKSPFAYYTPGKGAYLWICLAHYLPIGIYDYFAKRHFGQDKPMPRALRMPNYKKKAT
Description: Conversion of oestradiol to oestrone in intact MDA-MB231 cell monolayers (Protocol 7). As to conditions: MDA-MB-231, measured at 10 μM, read-out: % Inhibition E2 → E1 ± SD (HSD Type II). It counts as cell-based. The procedure:
as §1, §2, §3

For assay [3], the target named is T3, human placental steroid sulphatase (Homo sapiens, UniProt P08842).
T3 construct: Placental microsomes (100000 g fraction) were prepared from a positive-positive human placenta from a normal-term pregnancy; from tissue; host or cells: human placenta, microsomal fraction
T3 sequence (P08842 22-583): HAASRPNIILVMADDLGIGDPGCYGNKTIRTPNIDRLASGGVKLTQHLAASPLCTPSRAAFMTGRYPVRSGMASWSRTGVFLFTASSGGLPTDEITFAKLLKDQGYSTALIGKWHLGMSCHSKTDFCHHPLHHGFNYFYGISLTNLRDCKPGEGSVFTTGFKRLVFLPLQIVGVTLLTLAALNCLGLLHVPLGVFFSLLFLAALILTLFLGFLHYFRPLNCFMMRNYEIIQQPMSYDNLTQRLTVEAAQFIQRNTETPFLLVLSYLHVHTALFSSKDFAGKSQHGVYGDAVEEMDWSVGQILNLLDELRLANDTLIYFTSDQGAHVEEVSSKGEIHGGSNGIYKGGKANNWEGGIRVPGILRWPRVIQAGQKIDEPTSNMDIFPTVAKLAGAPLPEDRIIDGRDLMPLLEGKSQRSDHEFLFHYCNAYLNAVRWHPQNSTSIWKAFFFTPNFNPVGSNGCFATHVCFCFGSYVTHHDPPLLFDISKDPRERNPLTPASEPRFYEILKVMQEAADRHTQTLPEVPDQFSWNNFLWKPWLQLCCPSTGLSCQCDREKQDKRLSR
Nature of the assay: Inhibition of oestrone sulphatase activity in human placental microsomes. As to conditions: for inhibition at 0.0001 µM / inhibition at 0.001 µM / inhibition at 0.01 µM / inhibition at 0.1 µM / inhibition at 1 µM / inhibition at 10 µM: read-out: Mean % Inhibition ± SD. The format is biochemical.

Each structure is given as a SMILES string.

For orientation: inhibition means the relative decrease from the control value, in per cent. As to `C[C@]12CCC3c4ccc(O)cc4CCC3C1CC(=O)N(Cc1ccccc1)C2=O` (stereo partly drawn) [compound 233], the inhibition at 10 µM in assay [1] is 58.8 ± 0.68%; in assay [2], 35.8 ± 3.88%. Besides, the “% Inhibition E1 → E2 ± SD (HSD Type I)” value in assay [1] (10 µM) is 57.43 ± 1.89%.

Regarding `C[C@]12CCC3c4ccc(O)cc4CCC3C1CC(=O)NC2=O` (stereo partly drawn) [compound 187], the inhibition at 10 µM in assay [1] is 25.3 ± 2.2%; in assay [2], -15.4 ± 0.41%.

Consider `COc1cc2c(cc1O)CCC1C2CC[C@]2(C)C(=O)NC(=O)CC12` (stereo partly drawn) [compound 325], for which the values for the inhibition at 10 µM in assay [1] and in assay [2] were 7.78 ± 2.45% and -20.2 ± 14.8%, respectively.

Regarding `CN1C(=O)CC2C3CCc4cc(O)ccc4C3CC[C@]2(C)C1=O` (stereo partly drawn) [compound 188], the inhibition at 10 µM was 33 ± 1.79% in assay [1] and -3.51 ± 2.44% in assay [2].

On to `C[C@]12CCC3c4ccc(OS(N)(=O)=O)cc4CCC3C1CC(=O)N(Cc1cccnc1)C2=O` (stereo partly drawn) [compound 237], for which the inhibition at 10 µM in assay [1] was -2%.

With `C[C@]12CCC3c4ccc(OS(N)(=O)=O)cc4CCC3C1CC(=O)N(Cc1ccccc1)C2=O` (stereo partly drawn) [STX 236, 3-Sulfamoyl-N-benzyl-16,17-seco-estra-1,3,5(10)-triene-16,7-imide], the “inhibition of STS (in words)” value in assay [3] (in vitro) is “in a minor extend”.

Regarding `C=CCN1C(=O)CC2C3CCc4cc(O)ccc4C3CC[C@]2(C)C1=O` (stereo partly drawn) [compound 274], the inhibition at 10 µM was 36.82 ± 0.36% in assay [1] and -4.04 ± 0.36% in assay [2].

On to `CCCN1C(=O)CC2C3CCc4cc(O)ccc4C3CC[C@]2(C)C1=O` (stereo partly drawn) [compound 189], for which the inhibition at 10 µM in assay [1] was found to be 17 ± 3.25%; in assay [2] it was 5.05 ± 2.31%.

As to `CCCCN1C(=O)CC2C3CCc4cc(O)ccc4C3CC[C@]2(C)C1=O` (stereo partly drawn) [compound 277], the inhibition at 10 µM in assay [1] is 18.6 ± 0.89%; in assay [2] it was 13.2 ± 9.74%.

For the compound `C[C@]12CCC3c4ccc(O)cc4CCC3C1CC(=O)N(CC1CC1)C2=O` (stereo partly drawn) [compound 278], the inhibition at 10 µM in assay [1] worked out at 24.2 ± 1.71%; in assay [2] it was 8.31 ± 2.46%.

Consider `C[C@]12CCC3c4ccc(OS(N)(=O)=O)cc4CCC3C1CC(=O)N(CCCCBr)C2=O` (stereo partly drawn) [compound 286], for which the inhibition at 10 µM in assay [1] is 26 ± 3.23%; in assay [2], -2.98 ± 0.38%.

On to `CCCCCN1C(=O)CC2C3CCc4cc(O)ccc4C3CC[C@]2(C)C1=O` (stereo partly drawn) [compound 190], for which the inhibition at 10 µM was 24.1 ± 4.59% in assay [1] and 0.48 ± 4.76% in assay [2].

Turning to `CCN1C(=O)CC2C3CCc4cc(O)ccc4C3CC[C@]2(C)C1=O` (stereo partly drawn) [compound 275], the values for the inhibition at 10 µM in assay [1] and in assay [2] were 42.5 ± 3.02% and 32.1 ± 1.06%, respectively.

In general, IC50 refers to the concentration that gives 50% inhibition. For `CN1C(=O)CC2C3CCc4cc(OS(N)(=O)=O)ccc4C3CC[C@]2(C)C1=O` (stereo partly drawn) [Compound 37, 3-Sulfamoyl-N-methyl-16,17-seco-estra-1,3,5(10)-triene-16,17-imide], in assay [3], the IC50 is 0.012 µM, the inhibition at 0.0001 µM came out at 4.7 ± 3%, the inhibition at 0.001 µM came to 15 ± 2.6% and the inhibition at 0.01 µM was determined as 46.4 ± 6%. Also, in assay [3], the inhibition at 0.1 µM was 81.9 ± 3.3%, the inhibition at 1 µM came to 96.4 ± 5.1% and the inhibition at 10 µM is 99.1 ± 0.2%.

Consider `C[C@]12CCC3c4ccc(O)cc4CCC3C1CC(=O)N(CCCCBr)C2=O` (stereo partly drawn) [compound 235], for which the inhibition at 10 µM in assay [1] was 16.6 ± 1.46%; in assay [2], 10.7 ± 0.78%.

As to `CC(C)(C)c1ccc(CN2C(=O)CC3C4CCc5cc(O)ccc5C4CC[C@]3(C)C2=O)cc1` (stereo partly drawn) [compound 279], the values for the inhibition at 10 µM in assay [1] and in assay [2] were 16 ± 0.88% and 3.87 ± 4.97%, respectively.

As to `C[C@]12CCC3c4ccc(O)cc4CCC3C1CC(=O)N(Cc1cccnc1)C2=O` (stereo partly drawn) [compound 234], the inhibition at 10 µM was 25.8 ± 9.27% in assay [1] and -1.45 ± 11.4% in assay [2].

As for `C[C@]12CCC3c4ccc(OS(N)(=O)=O)cc4CCC3C1CC(=O)NC2=O` (stereo partly drawn) [Compound 36, 3-Sulfamoyl-16,17-seco-estra-1,3,5(10)-Triene16,17-imide], in assay [3], inhibition was half-maximal at 0.02 µM (IC50), the inhibition at 0.0001 µM is -6.5 ± 3.6%, the inhibition at 0.001 µM was -2.5 ± 3% and the inhibition at 0.01 µM worked out at 17.4 ± 32.3%. Also, in assay [3], the inhibition at 0.1 µM turned out to be 72.6 ± 3.1%, the inhibition at 1 µM is 93.8 ± 4.2% and the inhibition at 10 µM was determined as 98.7 ± 2.7%.

The values are drawn from patent publication US7098218B2, “Steroidal compounds for inhibiting steroid sulphatase” (priority 2001, dated 2006).
